Reference: patent publication US20230312550A1, “N-(2-(4-CYANOTHIAZOLIDIN-3-YL)-2-OXOETHYL)-QUINOLINE-4-CARBOXAMIDES” (AstraZeneca AB, priority 2020, published 2023)
In brackets after ≈: the same amount, converted by molar mass. Where two headings read alike, the source gives them in different places.

Experiments:
[1] = target: human dipeptidylpeptidase 7 (hDPP7) (Homo sapiens (Human), UniProt Q9UHL4); assay: hDPP7 inhibition assay; type: biochemical; conditions: hDPP7 15 nM, Ala-Pro-amino-methylcoumarin 5 μM, n = 1
Experimental: Compounds were tested in a biochemical inhibition assay using human dipeptidylpeptidase 7 (hDPP7) enzyme at 15 nM FAC (BPS Bioscience, #80070) and the substrate Ala-Pro-amino-methylcoumarin (BPS Bioscience, #80305) at 5 μM FAC. The enzymatic reactions were conducted in duplicate at rt for 30 min in 50 μL DPP assay buffer (BPS Bioscience, #80300). Compound solutions (in DMSO) at 10 CR, 3 fold dilution series were prepared in assay buffer ten-fold higher than the final concentration, and 5 μL of the dilution was added to a 50 μL reaction so that the highest compound concentration was 100 μM FAC and the concentration of DMSO was 1% in all wells. The plates were read on a Tecan Infinite M1000 microplate reader with excitation 340 nm and emission 460 nm. Data were analyzed in Graph Pad Prism. IC50 values were determined by plotting % inhibition versus log compound concentration and using a one site dose response model. Raw data signals were normalized using 1% DMSO as 0% control and no enzyme as 100% inhibitor control.

[2] = target: human dipeptidylpeptidase 9 (hDPP9) (Homo sapiens (Human), UniProt Q86TI2); assay: hDPP9 inhibition assay; type: biochemical; conditions: hDPP9 0.4 nM, Ala-Pro-amino-methylcoumarin 5 μM, n = 1
human dipeptidylpeptidase 9 (hDPP9), sequence (Q86TI2 whole entry): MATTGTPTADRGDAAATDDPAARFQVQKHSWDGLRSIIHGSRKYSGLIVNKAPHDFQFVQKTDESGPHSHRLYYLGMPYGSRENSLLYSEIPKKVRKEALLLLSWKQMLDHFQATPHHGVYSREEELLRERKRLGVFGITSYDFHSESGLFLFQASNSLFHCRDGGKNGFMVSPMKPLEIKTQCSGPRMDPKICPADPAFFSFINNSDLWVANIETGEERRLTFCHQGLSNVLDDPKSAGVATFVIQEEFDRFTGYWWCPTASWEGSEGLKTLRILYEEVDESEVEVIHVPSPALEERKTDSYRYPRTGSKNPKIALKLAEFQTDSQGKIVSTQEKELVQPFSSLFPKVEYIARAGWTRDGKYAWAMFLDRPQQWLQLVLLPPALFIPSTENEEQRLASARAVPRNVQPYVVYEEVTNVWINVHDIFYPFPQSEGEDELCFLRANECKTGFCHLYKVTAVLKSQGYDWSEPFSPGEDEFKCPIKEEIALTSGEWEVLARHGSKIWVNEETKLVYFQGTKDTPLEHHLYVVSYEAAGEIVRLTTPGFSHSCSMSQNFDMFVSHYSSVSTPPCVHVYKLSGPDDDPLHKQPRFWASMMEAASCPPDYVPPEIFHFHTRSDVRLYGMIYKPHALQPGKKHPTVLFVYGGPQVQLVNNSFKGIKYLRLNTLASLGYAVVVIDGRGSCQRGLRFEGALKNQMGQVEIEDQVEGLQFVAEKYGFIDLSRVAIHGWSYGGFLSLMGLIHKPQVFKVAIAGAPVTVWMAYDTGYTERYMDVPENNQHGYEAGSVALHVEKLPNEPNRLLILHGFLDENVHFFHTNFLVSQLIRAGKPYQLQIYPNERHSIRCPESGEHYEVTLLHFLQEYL
Experimental: Compounds were tested in a biochemical inhibition assay using human dipeptidylpeptidase 9 (hDPP9) enzyme at 0.4 nM FAC (BPS Bioscience, #80090) and the substrate Ala-Pro-amino-methylcoumarin (BPS Bioscience #80305) at 5 μM FAC. The enzymatic reactions were conducted in duplicate at rt for 30 min in 50 μL DPP assay buffer (BPS Bioscience, #80300). […] The plates were read on a Tecan Infinite M1000 microplate reader with excitation 340 nm and emission 460 nm. Data were analyzed in Graph Pad Prism. IC50 values were determined by plotting % inhibition versus log compound concentration and using a one site dose response model. Raw data signals were normalized using 1% DMSO as 0% control and no enzyme as 100% inhibitor control.

[3] = target: Fibroblast Activation Protein alpha (FAP) (Mus musculus (Mouse), UniProt P97321); assay: in vivo
Fibroblast Activation Protein alpha (FAP), sequence (P97321 24-761): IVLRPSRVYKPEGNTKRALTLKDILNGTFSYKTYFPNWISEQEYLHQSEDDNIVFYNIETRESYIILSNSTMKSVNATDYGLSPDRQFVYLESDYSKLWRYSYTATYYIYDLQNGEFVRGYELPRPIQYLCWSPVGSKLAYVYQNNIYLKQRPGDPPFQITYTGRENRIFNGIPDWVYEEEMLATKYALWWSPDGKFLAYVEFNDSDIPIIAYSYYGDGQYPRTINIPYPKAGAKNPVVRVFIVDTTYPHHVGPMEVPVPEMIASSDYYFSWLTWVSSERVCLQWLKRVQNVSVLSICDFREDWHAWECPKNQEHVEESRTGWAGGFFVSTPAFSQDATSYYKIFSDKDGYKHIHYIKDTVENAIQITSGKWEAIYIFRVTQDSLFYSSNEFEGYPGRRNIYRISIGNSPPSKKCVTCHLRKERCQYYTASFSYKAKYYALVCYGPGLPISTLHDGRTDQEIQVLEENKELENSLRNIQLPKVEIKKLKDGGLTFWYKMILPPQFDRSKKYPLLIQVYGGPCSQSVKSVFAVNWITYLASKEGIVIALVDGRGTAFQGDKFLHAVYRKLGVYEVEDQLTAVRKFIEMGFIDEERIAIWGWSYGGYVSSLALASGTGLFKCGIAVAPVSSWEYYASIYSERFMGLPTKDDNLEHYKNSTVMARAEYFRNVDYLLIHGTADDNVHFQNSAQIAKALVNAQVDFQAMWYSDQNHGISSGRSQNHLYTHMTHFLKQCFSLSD
Experimental: The effect of test compound on FAP enzyme activity in mouse plasma was evaluated in an enzymatic assay using the Fibroblast Activation Protein alpha (FAP) specific fluorogenic substrate dipeptide-Coumarin, Ala-Pro-AMC, (ARI-3144).
Male C57Bl/6 mice (Charles River, Germany), 8 weeks of age, were single housed in a temperature-controlled room with a 12-hour light/dark cycle (06:00-18:00 light). The mice had ad libitum access to water and rodent chow diet (R70, Lactamin, Kimstad, Sweden), and were acclimated for 5 days upon arrival. After acclimation, all mice received a single oral dose of test compound (3 or 10 mg/kg). Blood samples for whole blood compound exposure measurements were taken at 0.25, 0.5, 1, 2, 4, 8 and 24 h post oral dosing. Samples were collected in EDTA capillary tubes (20 μL, K2E, REF 19.447) and were transferred to a 96-deep well plate (NUNC, Thermo Discher Scientific) and stored at −20° C. until further analyses were performed. Blood samples for plasma FAP enzyme activity measurements were taken at 0, 0.25, 0.5, 1, 2, 8 and 24 h post dosing. 25 μL of whole blood was collected in EDTA Microvette® CB 300 (K2E, REF 16.444.100) tubes, and were centrifuged at 4,000×g for 5 min. 10 μL of plasma was then transferred to PCR tubes and stored at −20° C. until further analysis was performed. All blood samples were taken by vena saphena puncture.
Recombinant human FAP (PB-17-1837, construct PL-17-0278, cd33-FAP (27-757)-6His, Mw85926 Da) was used as a standard for this assay. […] The plates were read on a Beckman Paradigm reader with excitation 360 nm and emission 465 nm. Fluorescence measurements were performed with kinetic read every 5 minutes for 60 min at room temperature. Data were analyzed in Excel (IDBS XLfit Add-In) using a Linear Regression (y=k*x+m) model to prepare a human recombinant FAP standard curve.
On the day of the assay, plasma was diluted (1:2) to 20 μL volume in buffer (PBS, 0.1% BSA) and 7.5 μL was transferred to the assay plate (384-well black, fluotrack PS, Greiner 781076). Ala-Pro-AMC (stock solution in 10 mM DMSO) was diluted in buffer (PBS, 0.1% BSA) to 150 μM concentration (180 μL stock solution to 12 mL buffer) and 7.5 μL added to the assay plate followed by a pipetting mix. The plates were read on a Beckman Paradigm reader with excitation 360 nm and emission 465 nm. Fluorescence measurements were performed with kinetic read every 5 minutes for 60 minutes at room temperature. As noted above, FAP cleaves Ala-Pro-AMC to release free AMC which is measured as a fluorescent signal.
The in vivo potency IC50 of each test compound was then estimated by relating the plasma exposure C of the compound to target engagement E in plasma using the following equation:
where E0 is the FAP baseline in plasma prior to dosing and Imax is the maximum effect of the compound. Data from each target engagement experiment were considered separately and therefore slightly different estimates of FAP baseline for each compound were obtained. […] The parameter estimation was done in Phoenix WinNonlin Certara build 8.1.0.3530 with the algorithm ‘Naïve pooled’ as parameter estimation method.

FAP [4] = target: FAP (Mus musculus (Mouse), UniProt P97321); assay: FAP plasma inhibition assay, mouse plasma; type: biochemical; conditions: mouse plasma diluted 1:67, Ala-Pro-AMC 75 μM
FAP (Mus musculus (Mouse), UniProt P97321), sequence (P97321 24-761): as above
Outline: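 K2EDTA plasma served as enzyme source, human diluted 1:40 and mouse 1:67, in PBS with 0.1% BSA. Compounds ran as a 10-point 3-fold series from 500 nM final, in duplicate, 40 min at rt in the dark, with fluorescence read against a pre-substrate blank. IC50 came from % inhibition versus log concentration.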

Kinetic solubility = conditions: kinetic from dmso stock, Solubility, kinetic solubility; n = 1 or average of n = 2-3
Experimental: (§1) Kinetic solubility was measured as described in Comput Aided Mol Des 2015, 29, 795.

[5] = Metabolic stability in rat hepatocytes (rHep); conditions: n = 1 or geometric mean of n = 2-3
[6] = Metabolic stability in human hepatocytes (hHep); type: in vitro ADME; conditions: n = 1 or geometric mean of n = 2
Caco-2 cell permeability = conditions: human
Experimental: Caco-2 cell permeability was measured as described in Mol Pharm 2017, 14, 1601.

[7] = Metabolic stability in human liver microsomes (HLM); conditions: human, HLM CLint, n = 1 or average of n = 2-3
Experimental: (§2) Metabolic stability in HLM was measured as described in J Comput Aided Mol Des 2015, 29, 795.

FAP [8] = target: T1, FAP (Homo sapiens (Human), UniProt Q12884); assay: FAP plasma inhibition assay, human plasma; type: biochemical; conditions: human plasma diluted 1:40, Ala-Pro-AMC 75 μM
Experimental: This assay was adapted from the method described in Example 237 for detection of FAP target engagement enzyme activity in plasma. Plasma (anticoagulant K2EDTA) was used as the enzyme source: Human plasma (Pooled from AZ Biobank), Mouse plasma (AZ AST Biobank), and Cynomolgus plasma (BioIVT, #NHP00PLK2FNN, lot CYN222895). 384-Well black fluotrack PS plates (Greiner 781076) were used. 20 μL diluted plasma (Cynomolgus and Human plasma dilution 1:40, Mouse plasma dilution 1:67) in buffer (PBS, 0.1% BSA) was added to 0.6 μL compounds (in DMSO). Compounds were tested using 10 CR, 3 fold dilution series from 500 nM FAC. Two replicates for each assay point were run on the same plate. A fluorescence blank read was taken before substrate addition. […] Plates were incubated for 40 min at rt in the dark. […] IC50 values were determined by plotting % inhibition versus log compound concentration.
Target sequence in this assay (Q12884 24-760): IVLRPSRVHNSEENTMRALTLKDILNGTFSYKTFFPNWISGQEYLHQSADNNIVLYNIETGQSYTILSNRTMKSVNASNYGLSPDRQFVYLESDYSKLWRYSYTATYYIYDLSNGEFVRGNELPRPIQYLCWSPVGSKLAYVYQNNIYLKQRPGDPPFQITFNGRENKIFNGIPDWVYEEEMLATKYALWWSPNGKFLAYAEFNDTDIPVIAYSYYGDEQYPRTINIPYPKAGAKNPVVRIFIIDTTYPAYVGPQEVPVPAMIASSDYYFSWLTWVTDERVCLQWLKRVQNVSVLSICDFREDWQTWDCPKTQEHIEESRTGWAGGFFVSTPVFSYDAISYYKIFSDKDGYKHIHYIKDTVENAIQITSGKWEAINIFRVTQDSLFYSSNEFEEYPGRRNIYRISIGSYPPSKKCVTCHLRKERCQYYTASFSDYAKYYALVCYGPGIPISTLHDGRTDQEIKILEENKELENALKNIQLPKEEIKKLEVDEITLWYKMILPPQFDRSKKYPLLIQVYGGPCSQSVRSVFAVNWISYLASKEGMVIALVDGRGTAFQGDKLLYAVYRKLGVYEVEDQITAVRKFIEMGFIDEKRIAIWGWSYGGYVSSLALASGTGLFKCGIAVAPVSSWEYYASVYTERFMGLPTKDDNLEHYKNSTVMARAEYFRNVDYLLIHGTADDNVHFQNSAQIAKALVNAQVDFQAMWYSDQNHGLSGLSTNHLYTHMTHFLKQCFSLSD

[9] = target: Prolyl endopeptidase, Prolyl Oligopeptidase (hPREP) (Homo sapiens (Human), UniProt P48147); assay: hPrep inhibition assay; type: biochemical; conditions: hPREP 0.6 nM, Z-Gly-Pro-amino-methylcoumarin 50 μM; read-out: PREP IC50
Prolyl endopeptidase, Prolyl Oligopeptidase (hPREP), sequence (P48147 whole entry): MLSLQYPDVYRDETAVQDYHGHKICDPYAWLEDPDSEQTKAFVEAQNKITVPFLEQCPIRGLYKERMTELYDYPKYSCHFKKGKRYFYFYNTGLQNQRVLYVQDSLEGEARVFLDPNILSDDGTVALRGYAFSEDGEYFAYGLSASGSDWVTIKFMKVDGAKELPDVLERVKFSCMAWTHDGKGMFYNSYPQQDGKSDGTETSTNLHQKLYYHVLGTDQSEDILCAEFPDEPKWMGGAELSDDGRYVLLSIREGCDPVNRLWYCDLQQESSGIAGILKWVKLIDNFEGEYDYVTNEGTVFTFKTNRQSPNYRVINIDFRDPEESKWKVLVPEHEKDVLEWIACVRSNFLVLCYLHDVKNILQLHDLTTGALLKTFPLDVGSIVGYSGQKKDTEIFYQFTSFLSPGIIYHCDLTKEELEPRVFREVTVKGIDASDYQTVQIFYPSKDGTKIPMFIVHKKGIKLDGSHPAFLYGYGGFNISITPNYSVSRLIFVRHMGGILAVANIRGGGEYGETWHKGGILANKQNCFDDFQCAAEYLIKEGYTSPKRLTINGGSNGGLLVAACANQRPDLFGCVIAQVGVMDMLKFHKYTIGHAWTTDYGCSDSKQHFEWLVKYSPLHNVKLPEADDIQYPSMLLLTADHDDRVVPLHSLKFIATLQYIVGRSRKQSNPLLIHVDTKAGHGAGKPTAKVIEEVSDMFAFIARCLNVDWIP
Outline: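 Fluorogenic read-out (340 nm excitation, 460 nm emission) after 20 min at rt, using 50 μM final Z-Gly-Pro-aminomethylcoumarin and 0.6 nM final enzyme, following 15 min compound preincubation. Buffer pH 7.5 with glutathione and Triton X-100. IC50 via one-site model on % inhibition vs log concentration.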

FAP [10] = target: T1, FAP; assay: hFAP inhibition assay; type: biochemical; conditions: hFAP […], Ala-Pro-AMC 20 μM; n = 1 or geometric mean n = 2-3
Outline: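 Compounds (10-point, 3-fold dilutions from 50 μM top) were preincubated 15 min at rt in the dark with 0.48 nM hFAP in pH 7.4 Tris/NaCl/Chaps buffer. Reaction was started with substrate (40 μM solution) and ran 30 min at rt. Read by fluorescence (340/460 nm); IC50 from one-site fit.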
Target sequence in this assay (Q12884 38-760): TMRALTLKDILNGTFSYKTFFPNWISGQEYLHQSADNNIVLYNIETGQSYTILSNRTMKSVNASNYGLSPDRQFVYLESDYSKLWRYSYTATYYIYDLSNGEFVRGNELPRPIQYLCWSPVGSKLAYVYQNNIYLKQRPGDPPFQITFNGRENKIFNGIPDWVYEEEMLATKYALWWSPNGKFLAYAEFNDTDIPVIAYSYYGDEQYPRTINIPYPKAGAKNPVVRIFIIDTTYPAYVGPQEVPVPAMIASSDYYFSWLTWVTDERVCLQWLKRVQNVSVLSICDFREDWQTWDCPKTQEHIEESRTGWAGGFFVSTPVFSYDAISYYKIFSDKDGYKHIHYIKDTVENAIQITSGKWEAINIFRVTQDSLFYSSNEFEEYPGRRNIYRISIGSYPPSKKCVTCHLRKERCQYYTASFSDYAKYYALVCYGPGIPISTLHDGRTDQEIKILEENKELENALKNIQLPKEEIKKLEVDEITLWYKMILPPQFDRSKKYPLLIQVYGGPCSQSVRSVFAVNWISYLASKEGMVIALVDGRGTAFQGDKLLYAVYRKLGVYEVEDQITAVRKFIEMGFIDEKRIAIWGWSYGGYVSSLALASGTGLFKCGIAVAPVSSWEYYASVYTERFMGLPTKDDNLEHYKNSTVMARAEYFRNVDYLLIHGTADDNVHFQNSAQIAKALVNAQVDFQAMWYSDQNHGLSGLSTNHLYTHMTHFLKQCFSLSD

hFAP (M39-A757) = hFAP (M39-A757) (Homo sapiens (Human), UniProt Q12884); assay: hFAP binding assay (surface plasmon resonance); conditions: SPR, 20° C.; for hFAP Binding assay k(off) / hFAP Binding assay k(on): single cycle kinetics; for Kd: n = 1 or geometric mean n = 2-4
hFAP (M39-A757), sequence (Q12884 39-757): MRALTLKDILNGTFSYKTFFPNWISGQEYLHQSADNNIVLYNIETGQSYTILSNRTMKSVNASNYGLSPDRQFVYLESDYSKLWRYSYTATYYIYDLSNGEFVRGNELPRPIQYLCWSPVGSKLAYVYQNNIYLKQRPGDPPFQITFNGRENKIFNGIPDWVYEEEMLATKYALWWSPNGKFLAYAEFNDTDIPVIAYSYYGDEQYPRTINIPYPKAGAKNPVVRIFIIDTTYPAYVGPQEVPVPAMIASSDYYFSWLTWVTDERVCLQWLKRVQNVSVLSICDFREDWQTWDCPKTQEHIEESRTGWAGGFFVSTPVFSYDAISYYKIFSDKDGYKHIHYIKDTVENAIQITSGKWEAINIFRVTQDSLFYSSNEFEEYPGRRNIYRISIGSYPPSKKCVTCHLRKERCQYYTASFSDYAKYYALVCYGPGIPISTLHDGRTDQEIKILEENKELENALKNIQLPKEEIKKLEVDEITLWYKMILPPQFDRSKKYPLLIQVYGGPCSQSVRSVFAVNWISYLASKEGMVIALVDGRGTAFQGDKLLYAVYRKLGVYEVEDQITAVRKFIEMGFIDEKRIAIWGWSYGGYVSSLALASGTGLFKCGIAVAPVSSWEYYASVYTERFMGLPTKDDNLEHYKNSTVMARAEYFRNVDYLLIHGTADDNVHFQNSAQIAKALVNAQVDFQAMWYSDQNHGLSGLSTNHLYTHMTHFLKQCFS

[11] = target: human Fibroblast activation protein alpha (hFAP) (Homo sapiens (Human), UniProt Q12884); assay: hFAP inhibition assay (tight binders); type: biochemical; conditions: Ala-Pro-AMC 20 μM, n = 1 or geometric mean n = 2-6; also: hFAP 2.4 pM
human Fibroblast activation protein alpha (hFAP), sequence (Q12884 38-760): as the sequence (Q12884 38-760) above
Experimental: The plates were read on a PHERAstar® reader with excitation 340 nm and emission 460 nm. Data were analyzed in Genedata Screener®. IC50 values were determined by plotting % inhibition versus log compound concentration and using a one site dose response model.

physchem = conditions: kinetic from dmso stock
Experimental: as §1

[12] = rat, hepatocytes
in vitro = conditions: human, microsomes, HLM CLint
Experimental: as §2

Structure (SMILES): N#C[C@@H]1CSCN1C(=O)CNC(=O)c1ccnc2ccc(N3CCO[C@@H](CF)C3)cc12 [Example 69, N-(2-((R)-4-Cyanothiazolidin-3-yl)-2-oxoethyl)-6-((R)-2-(fluoromethyl)morpholino)-quinoline-4-carboxamide]
- IC50 [1]: > 100000 nM
- IC50 [2]: 950 nM
- IC50 [3]: 2.1 nM

Structure (SMILES): N#C[C@@H]1CSCN1C(=O)CNC(=O)c1ccnc2ccc(N3CC4(C3)OCCO4)cc12 [Example 163, (R)—N-(2-(4-Cyanothiazolidin-3-yl)-2-oxoethyl)-6-(5,8-dioxa-2-azaspiro[3.4]octan-2-yl)quinoline-4-carboxamide]
- IC50 (FAP [4]): 0.2 nM
- IC50 [1]: > 100000 nM
- IC50 [3]: 3 nM

Structure (SMILES): C[C@H]1CN(c2ccc3nccc(C(=O)NCC(=O)N4CSC[C@H]4C#N)c3c2)CCO1 [Example 80, N-(2-((R)-4-Cyanothiazolidin-3-yl)-2-oxoethyl)-6-((S)-2-methylmorpholino)-quinoline-4-carboxamide]
- solubility (Kinetic solubility): 980 µM (≈ 417 µg/mL)
- rHep CLint [5]: 2 μL/min/1E6
- IC50 [1]: > 100000 nM
- IC50 [2]: 1400 nM
- IC50 [3]: 9 nM
- hHep CLint [6]: <1 μL/min/1E6
- Papp A→B (Caco-2 cell permeability): 0.81 ×10⁻⁶ cm/s
- Papp B→A (Caco-2 cell permeability): 25 ×10⁻⁶ cm/s
- microsomal CLint [7]: 7.5 µL/min/mg

Structure (SMILES): N#C[C@@H]1CSCN1C(=O)CNC(=O)c1ccnc2ccc(N3CCO[C@H](CF)C3)cc12 [Example 71, N-(2-((R)-4-Cyanothiazolidin-3-yl)-2-oxoethyl)-6-((S)-2-(fluoromethyl)morpholino)-quinoline-4-carboxamide]
- IC50 (FAP [4]): 0.2 nM
- IC50 [1]: > 100000 nM
- IC50 [2]: 1900 nM
- IC50 [3]: 2.8 nM

Structure (SMILES): COC1(C)CN(c2ccc3nccc(C(=O)NCC(=O)N4CSC[C@H]4C#N)c3c2)C1 [Example 151, (R)—N-(2-(4-Cyanothiazolidin-3-yl)-2-oxoethyl)-6-(3-methoxy-3-methylazetidin-1-yl)quinoline-4-carboxamide]
- IC50 (FAP [4]): 0.4 nM
- IC50 [1]: > 100000 nM
- IC50 [3]: 3.3 nM

Structure (SMILES): N#C[C@@H]1CSCN1C(=O)CNC(=O)c1ccnc2ccc(N3CC(CF)C3)cc12 [Example 113, (R)—N-(2-(4-Cyanothiazolidin-3-yl)-2-oxoethyl)-6-(3-(fluoromethyl)azetidin-1-yl)quinoline-4-carboxamide]
- IC50 (FAP [8]): 0.2 nM
- solubility (Kinetic solubility): 71 µM (≈ 29.4 µg/mL)
- IC50 [9]: 490 nM
- IC50 (FAP [10]): 0.25 nM
- IC50 (FAP [4]): 0.5 nM
- rHep CLint [5]: 11 μL/min/1E6
- hFAP Binding assay k(off) (hFAP (M39-A757)): 0.000045 s⁻¹
- hFAP Binding assay k(on) (hFAP (M39-A757)): 1500000 M⁻¹ s⁻¹
- Kd (hFAP (M39-A757)): 0.031 nM
- IC50 [3]: 2 nM
- hHep CLint [6]: <1.5 μL/min/1E6
- Papp (Caco-2 cell permeability): 20 ×10⁻⁶ cm/s
- Papp A→B (Caco-2 cell permeability): 1.9 ×10⁻⁶ cm/s
- Papp B→A (Caco-2 cell permeability): 23 ×10⁻⁶ cm/s
- efflux ratio (Caco-2 cell permeability): 12
- IC50 [11]: 0.12 nM
- microsomal CLint [7]: < 3 µL/min/mg

Structure (SMILES): C[C@@H]1CN(c2ccc3nccc(C(=O)NCC(=O)N4CSC[C@H]4C#N)c3c2)CCO1 [Example 72, N-(2-((R)-4-Cyanothiazolidin-3-yl)-2-oxoethyl)-6-((R)-2-methylmorpholino)-quinoline-4-carboxamide]
- solubility (Kinetic solubility): > 1000 µM
- IC50 (FAP [4]): 0.2 nM
- rHep CLint [5]: 2.7 μL/min/1E6
- IC50 [1]: > 100000 nM
- IC50 [2]: 2500 nM
- IC50 [3]: 7.2 nM
- hHep CLint [6]: <1 μL/min/1E6
- Papp A→B (Caco-2 cell permeability): 1.3 ×10⁻⁶ cm/s
- Papp B→A (Caco-2 cell permeability): 24 ×10⁻⁶ cm/s
- microsomal CLint [7]: 9.7 µL/min/mg

Structure (SMILES): CC1(CF)CN(c2ccc3nccc(C(=O)NCC(=O)N4CSC[C@H]4C#N)c3c2)C1 [Example 27, (R)—N-(2-(4-Cyanothiazolidin-3-yl)-2-oxoethyl)-6-(3-(fluoromethyl)-3-methylazetidin-1-yl)quinoline-4-carboxamide]
- IC50 (FAP [4]): 0.5 nM
- IC50 [1]: > 100000 nM
- IC50 [3]: 1.4 nM

Structure (SMILES): N#C[C@@H]1CSCN1C(=O)CNC(=O)c1ccnc2ccc(N3C4CCCC3COC4)cc12 [Example 86, 6-(3-Oxa-9-azabicyclo[3.3.1]nonan-9-yl)-N-(2-((R)-4-cyanothiazolidin-3-yl)-2-oxoethyl)quinoline-4-carboxamide]
- IC50 [9]: 360 nM
- solubility (physchem): 640 µM (≈ 289 µg/mL)
- rHep CLint [12]: 44 μL/min/1E6
- hFAP Binding assay k(off) (hFAP (M39-A757)): 0.000058 s⁻¹
- hFAP Binding assay k(on) (hFAP (M39-A757)): 730000 M⁻¹ s⁻¹
- Kd (hFAP (M39-A757)): 0.081 nM
- microsomal CLint (in vitro): 160 µL/min/mg
- IC50 [11]: 0.074 nM

Structure (SMILES): N#C[C@@H]1CSCN1C(=O)CNC(=O)c1ccnc2ccc(N3C4CCC3CC4)cc12 [Example 209, (R)-6-(7-Azabicyclo[2.2.1]heptan-7-yl)-N-(2-(4-cyanothiazolidin-3-yl)-2-oxoethyl)quinoline-4-carboxamide]
- IC50 [9]: 540 nM
- IC50 (FAP [10]): 0.44 nM
- solubility (physchem): 970 µM (≈ 409 µg/mL)
- rHep CLint [12]: 52 μL/min/1E6
- hFAP Binding assay k(off) (hFAP (M39-A757)): 0.000042 s⁻¹
- hFAP Binding assay k(on) (hFAP (M39-A757)): 3200000 M⁻¹ s⁻¹
- Kd (hFAP (M39-A757)): 0.02 nM
- microsomal CLint (in vitro): 170 µL/min/mg
- IC50 [11]: 0.15 nM

Structure (SMILES): Cc1nn(C)cc1-c1ccc2nccc(C(=O)NCC(=O)N3CSC[C@H]3C#N)c2c1 [Example 171, (R)—N-(2-(4-Cyanothiazolidin-3-yl)-2-oxoethyl)-6-(1,3-dimethyl-1H-pyrazol-4-yl)quinoline-4-carboxamide]
- IC50 (FAP [4]): 0.3 nM
- IC50 [1]: > 100000 nM
- IC50 [3]: 2.5 nM

Structure (SMILES): N#C[C@@H]1CSCN1C(=O)CNC(=O)c1ccnc2ccc(N3CCOCC3)cc12 [Example 67, (R)—N-(2-(4-Cyanothiazolidin-3-yl)-2-oxoethyl)-6-morpholinoquinoline-4-carboxamide]
- IC50 (FAP [4]): 0.52 nM
- IC50 [1]: 33000 nM
- IC50 [3]: 0.18 nM
